From patent US20240360178A1, “MACROCYCLIC IMMUNOMODULATORS” (Bristol-Myers Squibb Company, priority 2021, published 2024)
Positions of bridges follow the written chain, without caps; N, C: chain ends. Non-standard residues stand in square brackets, D forms with d. Residues, ends and D or L forms follow the SMILES beside them. Tyr(3-NO2) = N[C@@H](Cc1ccc(O)c([N+](=O)[O-])c1)C(=O)O; Bip = N[C@@H](Cc1ccc(-c2ccccc2)cc1)C(=O)O; hTyr = N[C@@H](CCc1ccc(O)cc1)C(=O)O; Ala(cPr) = N[C@@H](CC1CC1)C(=O)O; NMeF = CN[C@@H](Cc1ccccc1)C(=O)O; Cit = NC(=O)NCCC[C@H](N)C(=O)O; dOrn = NCCC[C@@H](N)C(=O)O; NMeA = CN[C@@H](C)C(=O)O; Orn = NCCC[C@H](N)C(=O)O; Dab = NCC[C@H](N)C(=O)O; Dap = NC[C@H](N)C(=O)O; Sar = CNCC(=O)O

Molecular target: T1, human PD-1 (Jurkat-PD-1 cells) / PE-labeled human PD-L1-Ig (Homo sapiens, UniProt Q15116)
T1 construct: expressed in transfected cells; host or cells: Jurkat cell line over-expressing human PD-1
Test: Jurkat-PD-1 Cell Binding High-Content Screening Assay (CBA); Jurkat hPD1-PDL1 assay
Conditions: Jurkat cell line over-expressing human PD-1; PE-labeled PD-L1-Ig 20 nM final; compound incubated 2 hours at 37° C.; read-out: Jurkat HPD1-PDL1 IC50
Outline: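 Read-out is high-content imaging of PE fluorescence on PD-1-over-expressing Jurkat cells. Cells are first exposed to compound for 2 hours at 37° C in serum-containing DMEM, after which PE-labeled PD-L1-Ig is added at 20 nM final.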

T1 sequence (Q15116 25-288): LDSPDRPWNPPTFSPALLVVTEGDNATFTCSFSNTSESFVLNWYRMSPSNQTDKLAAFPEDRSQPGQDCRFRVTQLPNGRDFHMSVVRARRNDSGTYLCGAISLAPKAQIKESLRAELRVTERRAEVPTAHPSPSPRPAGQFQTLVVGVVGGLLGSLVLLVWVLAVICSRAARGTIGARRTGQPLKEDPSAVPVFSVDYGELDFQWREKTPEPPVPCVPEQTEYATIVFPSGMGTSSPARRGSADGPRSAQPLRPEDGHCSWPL

| SMILES | IC50 |
| --- | --- |
| CC(C)C[C@@H]1NC(=O)[C@H](Cc2c[nH]c3ccccc23)NC(=O)[C@H](CC(=O)O)NC(=O)[C@H](Cc2ccc(O)cc2)NC(=O)[C@H](Cc2cnc[nH]2)NC(=O)CSC[C@@H](C(=O)NCC(N)=O)NC(=O)[C@H](CO)NC(=O)[C@H](C(C)C)NC(=O)[C@H](CC(C)C)NC(=O)[C@H](CC(N)=O)NC(=O)CN(C)C(=O)[C@H](C)N(C)C(=O)[C@H](C(C)C)NC(=O)[C@H](Cc2ccc(-c3ccccc3)cc2)NC1=O [Example 1150] ({CH2CO}-HYDWL[Bip]V[NMeA][Sar]NLVSCG-NH2; thioether N-14) | 690 nM |
| CC(C)C[C@@H]1NC(=O)[C@H](CCCNC(=N)N)NC(=O)[C@H](Cc2ccccc2)N(C)C(=O)[C@H](C)N(C)C(=O)[C@H](CCCNC(=N)N)NC(=O)[C@H](Cc2ccc(-c3ccccc3)cc2)NC(=O)[C@H](C(C)C)NC(=O)[C@H](Cc2c[nH]c3ccccc23)NC(=O)[C@H](CC(=O)O)NC(=O)[C@H](Cc2ccc(O)cc2)NC(=O)[C@H](Cc2ccccc2)NC(=O)CSC[C@@H](C(=O)NCC(N)=O)NC(=O)[C@H]([C@@H](C)O)NC(=O)[C@H](C(C)C)NC1=O [Example 1129] ({CH2CO}-FYDWV[Bip]R[NMeA][NMeF]RLVTCG-NH2; thioether N-14) | 500 nM |
| CC(C)C[C@@H]1NC(=O)[C@H](CCCNC(=N)N)NC(=O)[C@H](Cc2ccccc2)N(C)C(=O)[C@H](C)N(C)C(=O)[C@H](CCCNC(N)=O)NC(=O)[C@H](Cc2ccc(-c3ccccc3)cc2)NC(=O)[C@H](C(C)C)NC(=O)[C@H](Cc2c[nH]c3ccccc23)NC(=O)[C@H](CC(=O)O)NC(=O)[C@H](Cc2ccc(O)cc2)NC(=O)[C@H](CC(N)=O)NC(=O)CSC[C@@H](C(=O)NCC(N)=O)NC(=O)[C@H](CO)NC(=O)[C@H](C(C)C)NC1=O [Example 1381] ({CH2CO}-NYDWV[Bip][Cit][NMeA][NMeF]RLVSCG-NH2; thioether N-14) | 160 nM |
| CC(C)C[C@@H]1NC(=O)[C@H](Cc2c[nH]c3ccccc23)NC(=O)[C@H](CC(=O)O)NC(=O)[C@H](Cc2ccc(O)cc2)NC(=O)[C@H](Cc2ccccc2)NC(=O)CSC[C@@H](C(=O)N[C@@H](C)C(N)=O)NC(=O)[C@H](CO)NC(=O)[C@H](C(C)C)NC(=O)[C@H](CC(C)C)NC(=O)[C@H](CC(N)=O)NC(=O)CN(C)C(=O)[C@@H](CCCN)NC(=O)[C@H](C(C)C)NC(=O)[C@H](Cc2ccc(-c3ccccc3)cc2)NC1=O [Example 1198] ({CH2CO}-FYDWL[Bip]V[dOrn][Sar]NLVSCA-NH2; thioether N-14) | 760 nM |
| CC(C)C[C@@H]1NC(=O)[C@H](Cc2c[nH]c3ccccc23)NC(=O)[C@H](CC(=O)O)NC(=O)[C@H](CCc2ccc(O)cc2)NC(=O)[C@H](Cc2ccccc2)NC(=O)CSC[C@@H](C(=O)N[C@@H](C)C(N)=O)NC(=O)[C@H](CO)NC(=O)[C@H](C(C)C)NC(=O)[C@H](CC(C)C)NC(=O)[C@H](CC(N)=O)NC(=O)CN(C)C(=O)[C@H](C)N(C)C(=O)[C@H](C(C)C)NC(=O)[C@H](Cc2ccc(-c3ccccc3)cc2)NC1=O [Example 1086] ({CH2CO}-F[hTyr]DWL[Bip]V[NMeA][Sar]NLVSCA-NH2; thioether N-14) | 250 nM |
| CC(C)C[C@@H]1NC(=O)[C@H](CCCCN)NC(=O)[C@H](Cc2ccccc2)N(C)C(=O)[C@H](C)N(C)C(=O)[C@H](CCCNC(=N)N)NC(=O)[C@H](Cc2ccc(-c3ccccc3)cc2)NC(=O)[C@H](C(C)C)NC(=O)[C@H](Cc2c[nH]c3ccccc23)NC(=O)[C@H](CC(=O)O)NC(=O)[C@H](Cc2ccc(O)cc2)NC(=O)[C@H](CC(N)=O)NC(=O)CSC[C@@H](C(=O)N[C@@H](CO)C(N)=O)NC(=O)[C@H]([C@@H](C)O)NC(=O)[C@H](C(C)C)NC1=O [Example 1354] ({CH2CO}-NYDWV[Bip]R[NMeA][NMeF]KLVTCS-NH2; thioether N-14) | 210 nM |
| CC(C)C[C@@H]1NC(=O)[C@H](CCCNC(=N)N)NC(=O)[C@H](Cc2ccccc2)N(C)C(=O)[C@H](C)N(C)C(=O)[C@H](CCCNC(N)=O)NC(=O)[C@H](Cc2ccc(-c3ccccc3)cc2)NC(=O)[C@H](C(C)C)NC(=O)[C@H](Cc2c[nH]c3ccccc23)NC(=O)[C@H](CC(=O)O)NC(=O)[C@H](Cc2ccc(O)cc2)NC(=O)[C@H](Cc2ccccc2)NC(=O)CSC[C@@H](C(=O)NCC(N)=O)NC(=O)[C@H](CO)NC(=O)[C@H](C(C)C)NC1=O [Example 1245] ({CH2CO}-FYDWV[Bip][Cit][NMeA][NMeF]RLVSCG-NH2; thioether N-14) | 110 nM |
| CC(C)C[C@@H]1NC(=O)[C@H](Cc2c[nH]c3ccccc23)NC(=O)[C@H](CC(=O)O)NC(=O)[C@H](Cc2ccc(O)cc2)NC(=O)[C@H](Cc2ccccc2)NC(=O)CSC[C@@H](C(=O)N[C@@H](C)C(N)=O)NC(=O)[C@H](CO)NC(=O)[C@H](C(C)C)NC(=O)[C@H](CC(C)C)NC(=O)[C@H](CCC(=O)O)NC(=O)CN(C)C(=O)[C@H](C)N(C)C(=O)[C@H](C(C)C)NC(=O)[C@H](Cc2ccc(-c3ccccc3)cc2)NC1=O [Example 1108] ({CH2CO}-FYDWL[Bip]V[NMeA][Sar]ELVSCA-NH2; thioether N-14) | 340 nM |
| CC(C)C[C@@H]1NC(=O)[C@H](Cc2c[nH]c3ccccc23)NC(=O)[C@H](CC(=O)O)NC(=O)[C@H](Cc2ccc(O)cc2)NC(=O)[C@H](Cc2ccccc2)NC(=O)CSC[C@@H](C(=O)N[C@@H](C)C(N)=O)NC(=O)[C@H](CO)NC(=O)[C@H](C(C)C)NC(=O)[C@H](CC2CC2)NC(=O)[C@H](CC(N)=O)NC(=O)CN(C)C(=O)[C@H](C)N(C)C(=O)[C@H](C(C)C)NC(=O)[C@H](Cc2ccc(-c3ccccc3)cc2)NC1=O [Example 1144] ({CH2CO}-FYDWL[Bip]V[NMeA][Sar]N[Ala(cPr)]VSCA-NH2; thioether N-14) | 630 nM |
| CC(C)C[C@@H]1NC(=O)[C@H](Cc2c[nH]c3ccccc23)NC(=O)[C@H](CC(=O)O)NC(=O)[C@H](Cc2ccc(O)cc2)NC(=O)[C@H](C(C)C)NC(=O)CSC[C@@H](C(=O)NCC(N)=O)NC(=O)[C@H](CO)NC(=O)[C@H](C(C)C)NC(=O)[C@H](CC(C)C)NC(=O)[C@H](CC(N)=O)NC(=O)CN(C)C(=O)[C@H](C)N(C)C(=O)[C@H](C(C)C)NC(=O)[C@H](Cc2ccc(-c3ccccc3)cc2)NC1=O [Example 1154] ({CH2CO}-VYDWL[Bip]V[NMeA][Sar]NLVSCG-NH2; thioether N-14) | 790 nM |
| CC(C)C[C@@H]1NC(=O)[C@H](Cc2c[nH]c3ccccc23)NC(=O)[C@H](CC(=O)O)NC(=O)[C@H](Cc2ccc(O)cc2)NC(=O)[C@H](Cc2ccccc2)NC(=O)CSC[C@@H](C(=O)N[C@@H](C)C(N)=O)NC(=O)[C@H](CO)NC(=O)[C@H](C(C)C)NC(=O)[C@H](CC(C)C)NC(=O)[C@H](CCN)NC(=O)[C@H]2CCCN2C(=O)[C@H](CN)NC(=O)[C@H](C(C)C)NC(=O)[C@H](Cc2ccc(-c3ccccc3)cc2)NC1=O [Example 1408] ({CH2CO}-FYDWL[Bip]V[Dap][dP][Dab]LVSCA-NH2; thioether N-14) | 90 nM |
| CC(C)C[C@@H]1NC(=O)[C@H](Cc2c[nH]c3ccccc23)NC(=O)[C@H](CC(=O)O)NC(=O)[C@H](Cc2ccc(O)c([N+](=O)[O-])c2)NC(=O)[C@H](Cc2ccccc2)NC(=O)CSC[C@@H](C(=O)N[C@@H](C)C(N)=O)NC(=O)[C@H](CO)NC(=O)[C@H](C(C)C)NC(=O)[C@H](CC(C)C)NC(=O)[C@H](CC(N)=O)NC(=O)CN(C)C(=O)[C@H](C)N(C)C(=O)[C@H](C(C)C)NC(=O)[C@H](Cc2ccc(-c3ccccc3)cc2)NC1=O [Example 1087] ({CH2CO}-F[Tyr(3-NO2)]DWL[Bip]V[NMeA][Sar]NLVSCA-NH2; thioether N-14) | 250 nM |
| CC(C)C[C@@H]1NC(=O)[C@H](CCCNC(=N)N)NC(=O)[C@H](Cc2ccccc2)N(C)C(=O)[C@H](C)N(C)C(=O)[C@H](CCCN)NC(=O)[C@H](Cc2ccc(-c3ccccc3)cc2)NC(=O)[C@H](C(C)C)NC(=O)[C@H](Cc2c[nH]c3ccccc23)NC(=O)[C@H](CC(=O)O)NC(=O)[C@H](Cc2ccc(O)cc2)NC(=O)[C@H](CCC(N)=O)NC(=O)CSC[C@@H](C(=O)NCC(N)=O)NC(=O)[C@H](CO)NC(=O)[C@H](C(C)C)NC1=O [Example 1294] ({CH2CO}-QYDWV[Bip][Orn][NMeA][NMeF]RLVSCG-NH2; thioether N-14) | 140 nM |
| CC(C)C[C@@H]1NC(=O)[C@H](CCCNC(=N)N)NC(=O)[C@H](Cc2ccccc2)N(C)C(=O)[C@H](C)N(C)C(=O)[C@H](CN)NC(=O)[C@H](Cc2ccc(-c3ccccc3)cc2)NC(=O)[C@H](C(C)C)NC(=O)[C@H](Cc2c[nH]c3ccccc23)NC(=O)[C@H](CC(=O)O)NC(=O)[C@H](Cc2ccc(O)cc2)NC(=O)[C@H](Cc2ccccc2)NC(=O)CSC[C@@H](C(=O)NCC(N)=O)NC(=O)[C@H](CO)NC(=O)[C@H](C(C)C)NC1=O [Example 1242] ({CH2CO}-FYDWV[Bip][Dap][NMeA][NMeF]RLVSCG-NH2; thioether N-14) | 240 nM |
| CC(C)C[C@@H]1NC(=O)[C@H](Cc2c[nH]c3ccccc23)NC(=O)[C@H](CC(=O)O)NC(=O)[C@H](Cc2ccc(O)cc2)NC(=O)[C@H](Cc2ccccc2)NC(=O)CSC[C@@H](C(=O)NCC(N)=O)NC(=O)[C@H](CO)NC(=O)[C@H](C(C)C)NC(=O)[C@H](CC(C)C)NC(=O)[C@H](CC(N)=O)NC(=O)[C@H]2CCCN2C(=O)[C@H](CCN)NC(=O)[C@H](C(C)C)NC(=O)[C@H](Cc2ccc(-c3ccccc3)cc2)NC1=O [Example 1413] ({CH2CO}-FYDWL[Bip]V[Dab][dP]NLVSCG-NH2; thioether N-14) | 90 nM |
| CC(C)C[C@@H]1NC(=O)[C@H](Cc2c[nH]c3ccccc23)NC(=O)[C@H](CC(=O)O)NC(=O)[C@H](Cc2ccc(O)cc2)NC(=O)[C@H](Cc2ccc(O)cc2)NC(=O)CSC[C@@H](C(=O)NCC(N)=O)NC(=O)[C@H](CO)NC(=O)[C@H](C(C)C)NC(=O)[C@H](CC(C)C)NC(=O)[C@H](CC(N)=O)NC(=O)CN(C)C(=O)[C@H](C)N(C)C(=O)[C@H](C(C)C)NC(=O)[C@H](Cc2ccc(-c3ccccc3)cc2)NC1=O [Example 1152] ({CH2CO}-YYDWL[Bip]V[NMeA][Sar]NLVSCG-NH2; thioether N-14) | 740 nM |
